According to patent US20260317328A1, “SMALL MOLECULES FOR ADOPTIVE T-CELL THERAPY (ACT) THROUGH ACTIVATION OF THE mTOR SIGNALLING PATHWAY, PROCESS FOR PREPARATION THEREOF” (COUNCIL OF SCIENTIFIC & INDUSTRIAL RESEARCH, priority 2023, published 2026):

Key:
[1] = Lipophilicity assay (n-octanol / phosphate buffer); format: physicochemical; details: pH 7.4, 1-octanol/10 mM sodium phosphate buffer, room temperature; criteria: <0 low, 0-1 moderate, >2 high lipophilicity
Protocol: 1.56 g NaH2PO4O·2H2O was dissolved in 0.5 L water in a 1 L beaker. After adjusting pH to 7.4 using NaOH solution, the volume was made up to 1 L. Equal volumes of sodium phosphate buffer (10 mM, pH 7.4) and n-octanol were added to a separation funnel and mixed thoroughly by shaking and inverting the funnel several times. The two layers were allowed to separate for overnight and then dispensed in two separate glass bottles. 10 mM stock solution was prepared in 100% DMSO and stored at 4° C. 495 μL of organic phase (1-octanol) was added to each well of a 2 mL deep well plate, followed by 495 μL of buffer and 10 μL of test substance was added. The plate was incubated for 3 hr at room temperature on a plate shaker at 500 rpm. After incubation, the samples were allowed to equilibrate for 20 min and then centrifuged at 4000 rpm for 30 min for complete phase separation and analysed by LC-UV.
Log D=Log (area of octanol/area of buffer)

[2] = Metabolic stability using human liver microsomes (HLM); format: in vitro ADME; details: pH 7.4, read-out: % QH (Well stirred model)
Protocol: 1 mM stock solution of test compound was prepared in DMSO and diluted with Acetonitrile:Water (1:1) to get a 100 μM working concentration. 100 mL of Milli Q water was added to K2HPO4 (1.398 g) and KH2PO4 (0.27 g) to get final pH 7.4 solution of potassium phosphate buffer. […] The above mixture was pre incubated for 15 minutes at 37° C. After pre incubation, 32.5 μL of the mixture was added to 17.5 μL of buffer, this was incubated for 60 minutes at 37° C. [60 min Without Cofactor (NADPH)]. 16.25 μL of the pre incubated mixture and 8.75 μL of cofactor was added to 150 μL of acetonitrile containing internal standard [0 min Sample]. 62 μL of cofactor was added to remaining pre incubation mixture [Incubation mixture]. 25 μL of incubation mixture at 0, 5, 15, 30, 60 min and 60 min without cofactor were precipitated with 150 μL of acetonitrile containing internal standard, vortexed and centrifuged at 4000 rpm at 4° C. for 20 minutes. 120 μL of supernatant was diluted with 120 μL of water and analyzed by LC-MS/MS [sample preparation].

EL4-OVA tumors = assay: Adoptive transfer of OT1 T cells into mice bearing EL4-OVA tumors; format: in vivo, mouse
Protocol: Given the functional fitness of Comp-19 treated CD8^+ T cells in vitro, we, next, sought to determine their antitumor potential upon adoptive transfer into mice bearingEL4-OVA tumors.
EL-4.OVA tumor cells (1×10^6) or B16-F10 melanoma (0.5×10^6 cells) were injected subcutaneously into the left flank of 7-10 weeks old C57BL/6 mice. After 9 days of tumor establishment, ex vivo activated OT-1 T cells at 0.5×10^6 cells/mouse were adoptively transferred intravenously into tumor-bearing recipients.

Plasma stability assay = format: in vitro ADME; details: human, 37° C., 120 mins
Protocol: 1 mM Stock of test compound was prepared from 10 mM initial stock solution of compounds by diluting 10 μL of 10 mM stock with 90 μL of DMSO. Then 10 μL of 1 mM stock was diluted with 90 μL of DMSO to give 100 μM concentration. The frozen plasma was thawed at room temperature and centrifuged at 1400 rpm at 4° C., for 15 minutes. Approximately 90% of the clear supernatant fraction was transferred to a separate tube and was used for the assay. Final working stock of 1 μM was prepared by diluting 3 μL of 100 μM with 297 μL of plasma. Plasma containing the test compound was incubated for 120 mins at 37° C. in shaker with 500 rpm. 50 μL of aliquot of sample at 0, 15, 30, 60 and 120 minutes were precipitated with 150 μL of acetonitrile containing internal standard and centrifuged at 4000 rpm at 4° C. for 20 minutes. 120 μL of supernatant was diluted with 120 μL of water and analyzed by LC-MS/MS.

CD8^+ T cells [3] = assay: Glucose uptake assay (2NBDG) in activated CD8+ T cells; format: cell-based; details: naïve T cells activated in presence of compound; 2NBDG (FIG. 2A)
From the text: (§1) Distinct T cell states require specific metabolic programs compatible to their functional demands. The transition between various T cell states is accompanied by active rewiring of cellular metabolism and epigenetic landscape. Oxidative phosphorylation is the main biochemical pathway that drives metabolism of naïve T cell. Upon activation, naïve T cells rapidly reprogram their metabolic networks to comply with the demands of robust clonal expansion and epigenetic remodeling. So, TCR activation and co-stimulation initiate a set of signaling cascades that collectively license a T cell to exit quiescence. Stimulation of the TCR promotes signaling through the ERK/MAPK pathways and calcium flux, activation of the PI3K-AKT-mTOR axis which subsequently resulting in T cell activation. This conversion to an activated effector T cell is marked by enhanced glucose uptake, engagement of aerobic glycolysis, increased oxidative phosphorylation. So, we assessed glucose uptake level by activated CD8^+ T cells using fluorescent labeled deoxy-glucose analogue, 2NBDG. […]
Glucose uptake assay: Glucose uptake by activated T cells was evaluated using fluorescent labeled deoxy-glucose analogue, 2NBDG. […]

mTORC1 = mTORC1 activity in CD8+ T cells: pS6 and p4EBP1 levels (flow cytometry, western blot); format: cell-based
From the text: Several transcription factors and signaling pathways coordinately support and regulate the metabolic shifting of naïve T cell after activation. Downstream of co-stimulation and PI3K-AKT signaling, mammalian target of Rapamycin (mTOR) kinase pathway helps in integrating multiple signals, plays a significant role for cell cycle entry and coordinates early anabolic changes that occur upon T cell activation mTOR complex 1 (mTORC1) promote aerobic glycolysis and support effector T cell proliferation, growth, and cytokine production. Translation repressor protein 4E-BP1 inhibits cap-dependent translation by binding to the translation initiation factor eIF4E. Phosphorylation of 4E-BP1 by mTORC1 disrupts this interaction and results in activation of cap-dependent translation. On the contrary, phosphorylation of S6 ribosomal protein correlates with an increase in translation of mRNA transcripts that contain an oligopyrimidine tract in their 5′ untranslated regions. Activation of mTORC1 increases protein translation via direct phosphorylation of 4E-BP1 and p70S6 kinase. Since Comp-19 was proposed as mTORC1 activator, next we sought to check expression level ofpS6 and p4EBP1 level inside CD8^+ T cells activated in presence/absence of Comp-19. […] CD8^+ T cells treated with Comp-19 (FIG. 3A-C).
(§2) Purified naïve CD3^+ T cells were activated either in presence of Comp 19 ([…]) or vehicle (DMSO) with plate-bound anti-CD3 ([…]) and anti-CD28 ([…]) for 72 h in RPMI-1640 medium containing 10% FBS, 50 µM R-ME, 50 U/mL penicillin and […] streptomycin and 100 IUmL^−1 rIL-2.
pS6 Staining: Intracellular phospho ribosomal protein S6 (pS6) were stained using Transcription factor Phospho Buffer set. Single cell suspension was prepared and cells were washed with 1×PBS. […] Finally, cells were washed, dissolved in PBS and analysed by flow cytometry.
Cell lysates from 4×10^6 cells per condition were prepared in RIPA buffer containing protease inhibitor cocktail. Protein concentrations were determined with a serial dilution standard curve of Bradford assay. […]

CD8^+ T cells [4] = assay: Initial small molecule screening: intracellular cytokine staining of CD8+ T cells activated with each small molecule; format: cell-based, mouse
From the text: To select the small molecule capable of inducing IFN-γ production in CD8^+ T cells, […] CD3^+ sorted naïve T cells were activated with each small molecule for 72 hrs followed by an intracellular cytokine staining.
CD3^+ T cells were isolated from human peripheral blood by density-gradient (Ficoll gradient) centrifugation followed by a negative selection using Dynabeads Untouched Human T Cells Kit, resulting in a typically >90% pure CD3^+ T cell population.
as §2
Measurement of cytokine production: To assess IFN-γ and TNF-α secretion by intracellular cytokine staining, cells (0.2×10^6) were treated for 4 hours with restimulation cocktail containing phorbolmyristate acetate (50 ng ml^−1) and ionomycin (500 ng ml^−1), brefeldin A (to block anterograde protein transport). Then cells were stained for surface markers and simultaneously labeled with Live/Dead Yellow Fluorescent Dye for 20 min at 4° C. Next cells were washed with PBS, fixed for 20 min at 4° C. with fixation/permeabilization solution, washed with permeabilization buffer, finally stained for 30 min with anti-IFN-γ and anti-TNF-α mAb in dark at 4° C., washed with PBS and analyzed.

CD8^+ T cells [5] = assay: Effector cytokine (IFN-γ, TNF-α) production by activated CD8+ T cells; format: cell-based; details: naïve T cells activated in presence of compound (FIG. 2B-E)
From the text: as §1, with “Stimulation of the TCR promotes signaling through the ERK/MAPK pathways and calcium flux, activation of the PI3K-AKT-mTOR axis which subsequently resulting in T cell activation. This conversion to an activated effector T cell is marked by enhanced glucose uptake, engagement of aerobic glycolysis, increased oxidative phosphorylation.” left out
(§3) Measurement of cytokine production: To assess IFN-γ and TNF-α secretion by intracellular cytokine staining, cells (0.2×10^6) were treated for 4 hours with restimulation cocktail containing phorbolmyristate acetate (50 ng ml^−1) and ionomycin (500 ng ml^−1), brefeldin A (to block anterograde protein transport). […] Next cells were washed with PBS, fixed for 20 min at 4° C. with fixation/permeabilization solution, washed with permeabilization buffer, finally stained for 30 min with anti-IFN-γ and anti-TNF-α mAb in dark at 4° C., washed with PBS and analyzed.

[6] = test system: Human naïve CD8^+ T cells; assay: EC50 for IFNγ production in human naïve CD8+ T cells; format: cell-based; details: 72 hrs, doses 500 pM to 50 μM, N=3 for each dose
Protocol: Human naïve CD8^+ T cells were sorted from PBMC and activated in presence of Comp 19 in the different doses (500 pM, 1 nM, 100 nM, 500 nM, 1 μM, 5 μM, 10 μM, 50 μM). After 72 hrs, activated CD8+ T cells were restimulated and stained for IFNγ production. Percent of CD8+ T cell producing IFNγ in the previously mentioned doses of Comp 19 was normalized to a vehicle control (DMSO) treated group. The optimum dosage of Comp 19 for inducing effector cytokine (IFNγ) production from CD8^+ T cells is 10 μM. […] (N=3 for each dose of Comp 19).
Human peripheral blood mononuclear cells (PBMC) were obtained from fully anonymized whole blood bags (age & sex related information were not provided) collected from healthy volunteer blood donors at NRS Medical College & Hospital, Kolkata, India. […]
as §3

[7] = OT1 T cells (0.5×10^6 cells/mouse) activated in presence of 10 μM ml^−1 compound
[8] = inhibitory receptor (FIG. 4F,4G)
[9] = 10 μM, 72 hrs, compared to vehicle control/other small molecules treated group (FIG. 1A-B)

COc1ccc(-c2nc3c(NS(=O)(=O)c4ccc(C)cc4)ncnc3n2C)cc1 [Compound 19, N-(8-(4-methoxyphenyl)-9-methyl-9H-purin-6-yl)-4-methylbenzenesulfonamide]
logD [1]: 0.96
hepatic extraction ratio [2]: 0.0077
persistence of CD8+Vβ5.1+ OT1 T cells (EL4-OVA tumors; FIG. 4B): improved persistence
survival of tumor-bearing mice (EL4-OVA tumors; [7]): markedly enhanced the survival
tumor growth control (EL4-OVA tumors; [7]): could efficiently control tumor growth
CD38 expression on CD8+Vβ5.1+ OT1 T cells (EL4-OVA tumors; [8]): reduced expression
PD1 expression on CD8+Vβ5.1+ OT1 T cells (EL4-OVA tumors; [8]): reduced expression
TIM3 expression on CD8+Vβ5.1+ OT1 T cells (EL4-OVA tumors; [8]): reduced expression
number of circulating CD8^+Vβ5.1^+ T cells (EL4-OVA tumors; tumor-bearing host, vs mice that received DMSO treated cells): higher number
remaining at 2 h, 1 µM (Plasma stability assay): 85.8%
glucose uptake (CD8^+ T cells [3]): promoted glucose uptake
mTORC1 activation (mTORC1; conclusion from pS6 and 4EBP1 results in CD8^+ T cells): potent mTOR-Cl activator
4EBP1 (p4EBP1) expression (mTORC1; downstream substrate of mTORC1 (FIG. 3D)): significant high expression
pS6 level inside CD8^+ T cells (mTORC1; flow cytometry and western blot (FIG. 3A-C)): marked increase
IFN-γ production from CD8^+ T cells (CD8^+ T cells [4]; [9]): highest
TNF-α production from CD8^+ T cells (CD8^+ T cells [4]; [9]): highest
improving effector cytokine production from CD8^+ T cells (ranking among the small molecules) (CD8^+ T cells [4]; 72 hrs activation): most promising
IFN-γ production level from CD8^+ T cell (CD8^+ T cells [5]): significant increase
TNF-α production level from CD8^+ T cell (CD8^+ T cells [5]): significant increase
optimum dosage for inducing effector cytokine (IFNγ) production from CD8^+ T cells [6]: 10 µM
EC50 ([6]; Homo sapiens, T-cell, normalized to vehicle (DMSO)): 4.09 µM

CCc1ccc(S(=O)(=O)Nc2ncnc3c2nc(-c2ccc(OC)cc2)n3C)cc1 [Compound 22, 4-ethyl-N-(8-(4-methoxyphenyl)-9-methyl-9H-purin-6-yl)benzenesulfonamide]
logD [1]: 4.32
hepatic extraction ratio [2]: 0.318
remaining at 2 h, 1 µM (Plasma stability assay): 3.9%

COCCc1ccc(OCC(O)CNC(C)C)cc1 (centres unmarked) [Metroprolol, reference compound]
logD [1]: -0.34

CC(C)[N+](C)(CCOC(=O)C1c2ccccc2Oc2ccccc21)C(C)C [Propantheline, reference compound]
remaining at 2 h, 1 µM (Plasma stability assay): 0.33%
